In US20220218725A1, “METHODS AND MATERIALS FOR TREATING CANCER” (Mayo Foundation for Medical Education and Research, priority 2019, published 2022):

System: JeKo-1 cells
Assay: Cell viability, Annexin V/PI assay (also IC50 and combination index)
Type: cell-based
Procedure: To assess apoptosis and cellular proliferation, all cell lines were treated with CRM 1 inhibitors (concentration ranging from 0.05-2 μM) and salicylates at concentrations ranging from (0.001-10 mM) for 48 hours before analysis was performed. DMSO was used to substitute the drug in controls.
After 48 hours incubation, cells were washed with Annexin buffer solution and stained with both propidium iodide (PI) and FITC-Annexin V (Life Technologies), and assayed on a BD Accuri flow cytometer (BD Biosciences). Apoptosis results were analyzed with BD CellQuest software. For cell cycle analysis, Jeko-1 cell line was intubated with CRM 1 inhibitors (concentrations ranging from […]) and salicylates (concentration at 3 mM) and Ly-1 cell line was intubated with CRM 1 inhibitors (concentrations ranging from 0.1-2.0 μM) and salicylates (concentration at 0.5-5 mM) for 24 and 48 hours and then fixed with 95% cold ethanol and kept at 4 C° for 24 h and subsequently underwent cell cycle analysis after PI staining and analysis was performed using BD FACS caliber flow cytometer (BD Biosciences) and FlowJo software (Tree Star).
Cell lines were purchased from the cell line repositories ATCC (Manassas, Va.) or DSMZ (Braunschweig, Germany). These included MCL cell lines: JeKo-1, Mino; TCL cell lines: Karpas-299, SR-786; DLBCL cell lines: OCI-Ly1 (LY-1), OCI-Ly3 (LY-3), OCI-Ly19 (LY-19), SU-DHL-6 (DHL-6); MM cell lines: RPMI, U266, OPM2, Xgl, KMS2; ALL cell lines: CRL-1783; non-small cell lung cancer: NCI-H460, A549, HCC827; small cell lung cancer: H1048; sarcoma: Fuji, SW872. Cell lines were cultured according to instruction.
KPT-330 purchased from Selleckchem (cat no: S7252) was dissolved in DMSO while CS (Santa Cruz, Calif.S 2016-36-6), sodium salicylate (Sigma-Aldrich, cat no: S3007), acetyl salicylate (Sigma-Aldrich, cat no: CAS 50-78-2) was diluted in PBS. Ketorolac (Sigma-Aldrich, cat no: 1356665), Bortezomib (Selleckchem, cat no: S1013), gemcitabine (Sigma-Aldrich, cat no: G6423), Leptomycin-B (Sigma-Aldrich, cat no: L2913-2X) and KPT-185 (Selleckchem, cat no: S7125) were dissolved in DMSO. The concentration range of KPT-330 was 0.05-1.0 μM while CS was 1-3 mM were used for ex vivo treatment and incubation time ranged from 24 hours to 72 hours. For the PARP inhibitor assay, olaparib 10 μM (SelleckChem, cat no: AZD2281 Ku-0059436) was used.
The viability assessment for cell lines and primary patients samples were conducted with the Annexin V/PI method.
Jeko-1 and OCI-Ly1 cell lines were used to assess the IC50. Keeping CS at 3 mM, KPT-330 was titrated. Relative IC50 was calculated as described elsewhere (see, e.g., Sebaugh et al., Pharmaceutical statistics 10:128-134 (2011)). The combination index was calculated as described elsewhere (see, e.g., Chou et al., Cancer Res 70:440-446 (2010)).

For `O=C(c1cc(Cc2n[nH]c(=O)c3ccccc23)ccc1F)N1CCN(C(=O)C2CC2)CC1` [Olaparib, olaparib], which “antitumor activity with PARP inhibitor” value (JeKo-1, olaparib 10 μM, KPT-330 0.5 μM, CS 3 mM, 48 h, AnnexinV/PI) is on record?
Its value is “did not have any antitumor activity”.

Which “effect of pan-caspase inhibitor on K+CS induced cell death” value (JeKo-1, 48 hours, KPT-330 0.5 μM and CS 3 mM) does the source give for `CC(C)[C@H](NC(=O)c1ccc2ccccc2n1)C(=O)N[C@@H](CC(=O)O)C(=O)COc1c(F)cccc1F` [Q-VD-OPh] here?
Its value is “rescued cells from K+CS induced cell death”.

Which “cell viability after K+CS treatment with exogenous thymidine” value (JeKo-1 in thymidine-free media, 0.5 μM KPT-330, 3 mM CS, 10 μM thymidine, 48 hours) does the source give for `Cc1cn([C@H]2C[C@H](O)[C@@H](CO)O2)c(=O)[nH]c1=O` [thymidine] here?
The value was “statistically significant increase in cell viability”.
